For experiment [1], the system named is ESBL-producing strain of Escherichia coli (EcR3). Description: Chessboard technique: MICs alone and synergism of Cx1 combinations. Particulars: antibiotic used alone; second figure of the cell; n = 4. It is filed as cell-based. The source says: (§1) Three reference strains were used, corresponding to those studied for the MICs and MBCs (Minimum Bactericidal Concentration): Escherichia coli ATCC 25922, Staphylococcus aureus ATCC 29213, Pseudomonas aeruginosa ATCC 27853. For each of these strains 3 corresponding clinical isolates were chosen, having various antibiotic-resistance profiles, routinely used in standard fashion: • EcR1, EcR2, EcR3; • SaR1, SaR3, SaR4; • PaR2, PaR3, PaR5.
(§2) 1.3. Procedure: Chessboard Technique
(§3) The bacterial suspension is transferred to a 15 mL Falcon tube, centrifuged for 10 min at 4500 g, then the pellet is re-suspended in 1 mL of sterile distilled water. Suitable dilutions are then prepared in order to obtain a bacterial inoculum between 5·10^5 and 5·10^6 CFU/mL.
(§4) The MICs of the antibiotics were previously determined for each strain, by the method of microdilution in a liquid medium (CLSI (Clinical and Laboratory Standards Institute), 2003).
(§5) The same procedure is followed for the Cx1. […] Thus 64 ATB/Cx1 combinations are obtained.
(§6) The final volume contained in each of the wells must be 100 μL. Two controls must be present on each plate: • column 1 and 12: medium control • column 2 and 11: medium+bacteria control
(§7) Cx1: […] in the wells of […], starting with the lowest concentration.
(§8) ATB: 25 μL in the wells of rows H to A (columns 3 to 11), starting with the lowest concentration.
(§9) 50 μL in each of the wells of columns 2 to 11.
(§10) D2: Reading the Turbidity at 540 Nm.
(§11) The FIC (Fractional Inhibitory Concentration Index) value is determined by the following formula:
(§12) [formula] MICA in combination MICA alone MICB in combination MICB alone
(§13) When FIC≦0.5, there is a synergistic effect between antibiotic A and antibiotic B.
(§14) When 0.5<FIC≦1, there is an additive effect between antibiotic A and antibiotic B.
(§15) When 1<FIC≦4, there is an indifferent effect between antibiotic A and antibiotic B.
(§16) When FIC>4, there is an antagonistic effect between antibiotic A and antibiotic B.
(§17) For each strain and each antibiotic/Cx1 combination, the experiments were repeated a minimum of 3 times.

For experiment [2], the system named is Pseudomonas aeruginosa strain ATCC 27853 (wild type). The description is as above. It is filed as cell-based. Particulars: antibiotic used alone; second figure of the cell; n = 4.
Excerpt: as §1, §2, §3, §4, §5, §6, §7, §8, §9, §10, §11, §12, §13, §14, §15, §16, §17

Experiment [3] concerns Pseudomonas aeruginosa strain having a resistance to β-lactams (including the carbapenems), aminoglycosides, the trimethoprim-sulphamethoxazole combination and …. The description is as above. It is filed as cell-based. Conditions: antibiotic used alone; second figure of the cell; n = 4.
Excerpt: as §1, §2, §3, §4, §5, §6, §7, §8, §9, §10, §11, §12, §13, §14, §15, §16, §17

For experiment [4], the system named is Staphylococcus aureus strain ATCC 29213 (wild type). The description is as above. It is filed as cell-based. Particulars: antibiotic used alone; second figure of the cell; n = 4.
Excerpt: as §1, §2, §3, §4, §5, §6, §7, §8, §9, §10, §11, §12, §13, §14, §15, §16, §17

The test system of experiment [5] is mucoid strain of Pseudomonas aeruginosa having a resistance to rifampicin and the trimethoprim-sulphamethoxazole combination (PaR5). Described as above. It is filed as cell-based. Conditions: antibiotic used alone; second figure of the cell; n = 4.
Excerpt: as §1, §2, §3, §4, §5, §6, §7, §8, §9, §10, §11, §12, §13, §14, §15, §16, §17

For experiment [6], the system named is Pseudomonas aeruginosa strain having a resistance to β-lactams, the trimethoprim-sulphamethoxazole combination and fosfomycin (PaR2). The format is cell-based. Particulars: antibiotic used alone; second figure of the cell; n = 4.
Excerpt: as §1, §2, §3, §4, §5, §6, §7, §8, §9, §10, §11, §12, §13, §14, §15, §16, §17

The subject of experiment [7] is EcR1: Penicillinase-Producing Escherichia coli without Associated Resistance. Description: Antibiogram, MIC by the VITEK 2 system. The format is cell-based. Particulars: Table A1, category from MIC. Here is the method: (§18) 5. Identification and Antibiogram 5.1 EcR1: Penicillinase-Producing Escherichia coli without Associated Resistance
(§19) The bacterial and antibiogram identification is carried out by the VITEK 2 system (bioMérieux) and by the disk diffusion technique.

Experiment [8] shares this test system. Briefly: Antibiogram by the disk diffusion technique. The format is cell-based. Conditions: for Results (diameter): Table A1, category from diameter vs Dmin Dmax; for diameter in mm: Table A2, diameter. Here is the method: as §18, §19
Experiment [9] concerns MRSA strain having a resistance to the aminoglycosides, fluoroquinolones, macrolides-lincosamides-synergistins and ofloxacin (SaR4). Briefly: Chessboard technique: MICs alone and synergism of Cx1 combinations. The format is cell-based, Staphylococcus aureus. Particulars: antibiotic used alone; second figure of the cell; n = 4.
Excerpt: as §1, §2, §3, §4, §5, §6, §7, §8, §9, §10, §11, §12, §13, §14, §15, §16, §17

Experiment [10] deals with Escherichia coli, Staphylococcus aureus and Pseudomonas aeruginosa strains. Description: Chessboard technique, summary over all strains and combinations tested. It is filed as cell-based.
Excerpt: as §1, §2
The FIC (Fractional Inhibitory Concentration Index) value is determined by the following formula: […]
as §17

For experiment [11], the system named is MRSA strain having a resistance to the aminoglycosides and fluoroquinolones (SaR3). Briefly: Chessboard technique: MICs alone and synergism of Cx1 combinations. It is filed as cell-based, Staphylococcus aureus. Conditions: antibiotic used alone; second figure of the cell; n = 4.
Excerpt: as §1, §2, §3, §4, §5, §6, §7, §8, §9, §10, §11, §12, §13, §14, §15, §16, §17

Experiment [12] has as its system MRSA strain without associated resistance (SaR1). Described as above. Conditions: antibiotic used alone; second figure of the cell; n = 4. It is filed as cell-based, Staphylococcus aureus.
Excerpt: as §1, §2, §3, §4, §5, §6, §7, §8, §9, §10, §11, §12, §13, §14, §15, §16, §17

We go through 15 compounds from patent publication US8946299B2, “Use of calixarenes associated with an antibiotic in the treatment of bacterial infections” (Universite de Lorraine, priority 2011, dated 2015).

In the case of `NCC[C@H](O)C(=O)N[C@@H]1C[C@H](N)[C@@H](O[C@H]2O[C@H](CN)[C@@H](O)[C@H](O)[C@H]2O)[C@H](O)[C@H]1O[C@H]1O[C@H](CO)[C@@H](O)[C@H](N)[C@H]1O` [Amikacin], the “Initial MICs (antibiotic)” value in experiment [1] turned out to be 1 mg/L. For the same compound, the “MIC (antibiotic)” value was 0.5 mg/L in [2], 1 mg/L in experiment [3], 0.5 mg/L in experiment [5] and 1 mg/L in experiment [6]. Also, the “Initials MIC (antibiotic)” value in [4] came out at 1 mg/L. In addition, the “Results (MIC)” value in experiment [7] is “Susceptible”. Further, in experiment [8], the “Results (diameter)” value was “Susceptible”.

On to `C[C@H]1[C@H](NC(=O)/C(=N\OC(C)(C)C(=O)O)c2csc(N)n2)C(=O)N1S(=O)(=O)O` [Aztreonam], for which, in experiment [8], the “Results (diameter)” value is “Susceptible” and the diameter in mm turned out to be 28 mm.

As to `CC(=O)OCC1=C(C(=O)O)N2C(=O)[C@@H](NC(=O)Cc3cccs3)[C@H]2SC1` [C1G, Cefalotine], the “Results (MIC)” value in experiment [7] is listed as “Susceptible”. In addition, the “Results (diameter)” value in experiment [8] is reported as “Intermediate”.

For the compound `CO/N=C(\C(=O)N[C@@H]1C(=O)N2C(C(=O)[O-])=C(C[N+]3(C)CCCC3)CS[C@H]12)c1csc(N)n1` [Cefepime], in experiment [8], the “Results (diameter)” value is reported as “Susceptible” and the diameter in mm is recorded as 27 mm.

`O=C(O)c1cn(C2CC2)c2cc(N3CCNCC3)c(F)cc2c1=O` [Ciprofloxacin]: the “Results (diameter)” value in experiment [8] is recorded as “Susceptible”.

In the case of `CC(=O)O[C@H]1C[C@@]2(C)[C@@H](C[C@@H](O)[C@H]3[C@@]4(C)CC[C@@H](O)[C@@H](C)[C@@H]4CC[C@@]32C)/C1=C(\CCC=C(C)C)C(=O)O` [Fusidic acid], in experiment [4], the “Initials MIC (antibiotic)” value came out at 2 mg/L. Besides, the “MIC (antibiotic)” value in experiment [9] was determined as 4 mg/L. Also, the “nature of the interaction between Cx1 and the antibiotic” value in [10] was “synergism”.

As for `C[C@@H](O)[C@H]1C(=O)N2C(C(=O)O)=C(SCCN=CN)C[C@H]12` [Imipenem], the “MIC (antibiotic)” value in experiment [2] is 2 mg/L; in [3], 32/32 mg/L; in [5] it was 2 mg/L; in experiment [9], 2 mg/L; in [6] it was 2 mg/L.

On to `C[C@H]1COc2c(N3CCN(C)CC3)c(F)cc3c(=O)c(C(=O)O)cn1c23` [Levofloxacin], for which, in [11], the “MIC (antibiotic)” value is on record as 8/8 mg/L.

On to `CC(=O)NC[C@H]1CN(c2ccc(N3CCOCC3)c(F)c2)C(=O)O1` [Linezolid], for which the “Initials MIC (antibiotic)” value in experiment [4] turned out to be 2 mg/L. Also, the “MIC (antibiotic)” value in experiment [11], in experiment [9] and in experiment [12] was 2 mg/L each time.

With `CN(C)c1ccc(O)c2c1C[C@H]1C[C@H]3[C@H](N(C)C)C(O)=C(C(N)=O)C(=O)[C@@]3(O)C(O)=C1C2=O` [Minocycline], in [8], the diameter in mm is 20 mm.

For `CCn1cc(C(=O)O)c(=O)c2ccc(C)nc21` [Nalidixic acid], in experiment [7], the “Results (MIC)” value was “Susceptible”.

For `CCN[C@@H]1C[C@H](N)[C@@H](O[C@H]2OC(CN)=CC[C@H]2N)[C@H](O)[C@H]1O[C@H]1OC[C@](C)(O)[C@H](NC)[C@H]1O` [Netilmicin], the “Results (MIC)” value in experiment [7] is on record as “Susceptible”. The “Results (diameter)” value in [8] is given as “Susceptible”.

On to `CCn1cc(C(=O)O)c(=O)c2cc(F)c(N3CCNCC3)cc21` [Norfloxacin], for which, in experiment [7], the “Results (MIC)” value is on record as “Susceptible”.

With `CC1(C)S[C@@H]2[C@H](NC(=O)[C@H](C(=O)O)c3ccsc3)C(=O)N2[C@H]1C(=O)O` [Ticarcillin], in experiment [7], the “Results (MIC)” value was “Resistant”. Further, the “Results (diameter)” value in experiment [8] is reported as “Resistant”.

Turning to `CN(C)c1cc(NC(=O)CNC(C)(C)C)c(O)c2c1C[C@H]1C[C@H]3[C@H](N(C)C)C(O)=C(C(N)=O)C(=O)[C@@]3(O)C(O)=C1C2=O` [Tigecycline], the “nature of the interaction between Cx1 and the antibiotic” value in [10] was “synergism”.
